# Assay results taken from patent US10059655B2, “Lipids and lipid compositions for the delivery of active agents” (priority 2013, dated 2018).
# Legend:
# [1] = Measurement of mRNA encapsulation in lipid nanoparticles (Quant-iT Ribogreen); type: physicochemical; settings: Leptin mRNA in LNP
# Method in brief: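 LNPs were formed by T-junction mixing of ethanolic lipids (cationic lipid:DSPC:cholesterol:PEG lipid 40:10:38:2) with mRNA in citrate pH 5.8–6.0 at N:P 4:1, then dialysed against PBS overnight at 4 °C. RiboGreen fluorescence (ex 480/em 520 nm) was read on samples diluted 400–2,000-fold in TE with or without 0.75% Triton X-100 and quantified against standard curves. Encapsulation % = (Triton − buffer concentration)/Triton concentration.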
# [2] = Measurement of siRNA encapsulation (SYBR Gold fluorescence); type: physicochemical; settings: FVII siRNA in LNP
# Method: The lipid nanoparticles (LNPs) were formed by mixing equal volumes of lipids dissolved in alcohol with siRNA dissolved in a citrate buffer by an impinging jet process. The lipid solution contains a cationic lipid compound of the invention, a helper lipid (cholesterol), an optional neutral lipid (DSPC) and a stealth lipid (S010, S024, S027, or S031) at a concentration of 8-16 mg/mL with a target of 12 mg/mL in an alcohol. The siRNA to total lipid ratio is approximately 0.05 (wt/wt). Where a LNP formulation contains four lipid components, the molar ratios of the lipids ranges from 20 to 70 mole percent for the cationic lipid with a target of 40-60, the mole percent of helper lipid ranges from 20 to 70 with a target of 30 to 50, the mole percent of neutral lipid ranges from 0-30, the mole percent of PEG lipid has a range from 1 to 6 with a target of 2 to 5. The concentration of siRNA solution ranges from 0.7 to 1.0 mg/mL with a target of 0.8 to 0.9 mg/mL in a sodium citrate: sodium chloride buffer pH 4-6, with a target of 4.5-5.5. The LNPs are formed by mixing equal volumes of lipid solution in ethanol with siRNA dissolved in a citrate buffer by an impinging jet process through a mixing device with ID ranging from 0.25 to 2.0 mm at a flow rate from 10 to 640 mL/min. The mixed LNP solution is held at room temperature for 0-24 hrs prior to a dilution step. The solution is then concentrated and diafiltered with suitable buffer by ultrafiltration process using membranes with a MW cutoff from 30 to 500 KD. The final product is sterile filtered and stored at 4° C.
# SYBR Gold flourescence reagent is used for the determination of siRNA encapsulation in the DLP's. DLP's with and without triton x-100 are used to determine the free siRNA and total siRNA amounts. DLP's samples with and without triton X-100 were excited at 485 nm and flourescence emission is measured at 530 nm. Encapsulation efficiency is calculated based on the following formula: Encapsulation efficiency: [(free siRNA concentration−total siRNA concentration)/(total siRNA concentration)]×100% Encapsulation Data
SMILES,% encapsulation mRNA Leptin [1] [%],% encapsulation siRNA FVII [2] [%]
"CCCCC/C=C\C/C=C\CCCCCCCC(=O)OCC(COC(=O)CCCC(CCCCCCC)CCCCCCC)COC(=O)OCCCN(CC)CC (stereo not shown) [Example 25, (9Z,12Z)-3-(((3-(diethylamino)propoxy)carbonyl)oxy)-2-(((5-heptyldodecanoyl)oxy)methyl)propyl octadeca-9,12-dienoate]",95.3,88.7
"CCCCC/C=C\C/C=C\CCCCCCCC(=O)OCC(COC(=O)CCCCCCC/C=C\C/C=C\CCCCC)COC(=O)C1CCN(CC2CC2)CC1 [Example 9, (9Z,9′Z,12Z,12′Z)-2-(((1-(cyclopropylmethyl)piperidine-4-carbonyl)oxy)methyl)propane-1,3-diyl bis(octadeca-9,12-dienoate)]",–,86.7
"CCCCC/C=C\C/C=C\CCCCCCCC(=O)OCC(COC(=O)CCCCCCCC(CCCCC)CCCCC)COC(=O)OCCCN(CC)CC (stereo not shown) [Example 24, (9Z,12Z)-3-(((3-(diethylamino)propoxy)carbonyl)oxy)-2-(((9-pentyltetradecanoyl)oxy)methyl)propyl octadeca-9,12-dienoate]",86.6,89.1
"CCCCC/C=C\C/C=C\CCCCCCCC(=O)OCC(COC(=O)OCCN(C)C)COC(=O)C(OCCCCCCC)OCCCCCCC (stereo not shown) [Example 26, (9Z,12Z)-3-(2,2-bis(heptyloxy)acetoxy)-2-((((2-(dimethylamino)ethoxy)carbonyl)oxy)methyl)propyl octadeca-9,12-dienoate]",96.9,80.0
